Structures are written as SMILES. Values after ≈ are worked out from the molar mass of the structure shown. Values joined by “and” are separate entries in the source; they are usually repeats but may differ in a detail not shown here. Equal entries are not always repeated. “Also recorded” adds a separate entry of the source.

This is an account of results in paper PMC6880814, “Skeletocutins M–Q: biologically active compounds from the fruiting bodies of the basidiomycete Skeletocutis sp. collected in Africa” (Beilstein Journal of Organic Chemistry, 2019).

Assay [1] deals with S. aureus DSM1104. The assay is described as follows: Inhibition of biofilm formation. The assay is classed as cell-based, Staphylococcus aureus. Particulars: for biofilm inhibition results from plate reader: raw reading, replications 1-3; for inhibition of biofilm formation (in words): S. aureus. Also noted: biofilm inhibition results from plate reader: reference not given here. The protocol: The assay was performed in Falcon® 96-well flat bottom plates as previously described. […] Methanol was used as negative control, while tetracycline was used as positive control. All experiments were made in triplicates.

The subject of assay [2] is surface-bound aminopeptidases of KB3.1 cells. Kind of assay: Inhibition of ʟ-Leu-AMC hydrolysis (leucine aminopeptidases). The assay is classed as cell-based. Particulars: for IC50, inhibition of ʟ-Leu-AMC hydrolysis: KB3.1 cells. On the procedure: Hydrolysis of ʟ-Leu-AMC by the surface-bound aminopeptidases of KB3.1 cells was assayed based on the method from Weber and co-workers with slight modifications. KB3.1 cells were grown as monolayer cultures in Dulbecco's modified Eagle's medium (DMEM) containing 10% fetal calf serum at 37 °C in 24-well multidishes. After three days, the confluent monolayers were washed twice with phosphate buffered saline (PBS), and the reaction mixture (450 µL Hanks' buffer at pH 7.2 containing 50 or 100 µM substrate ʟ-Leu-AMC, compounds dissolved in 50 µL DMSO) was added. After being incubated at 23 °C for 30 min, 1 mL cold 0.2 M glycine buffer at pH 10.5 was added. The amount of hydrolyzed 7-amino-4-methylcoumarin (AMC) was measured in a Tecan Infinite M200 PRO fluorescence spectrophotometer (excitation and emission at λ = 365 and 440 nm, respectively). Bestatin [12] and DMSO were used as positive and negative control, respectively.

The test system is the same in assay [3]. The description is as above. The assay is classed as cell-based. The following applies: at 50 and 110 µM substrate concentration.
Assay [4] relates to leucine aminopeptidase in HeLa S3 cells. On the set-up: method as in PMID 1620745. Particulars: 50 μM substrate concentration; cited from earlier work.
For assay [5], the system named is several Gram-positive bacteria (Bacillus subtilis, S. aureus, MRSA, Micrococcus luteus). Also noted: method as in PMID 31310114. Particulars: B. subtilis, M. luteus; cited from earlier work.

As for `CC1=C(CCCCCCCCCCCCCCCCCCC2=C(C)C(=O)OC2=O)C(=O)OC1=O` [Compound 1, 1,18-bis[4′-methyl-2′,5′-dioxo-3′-furyl]octadecane], the “biofilm inhibition results from plate reader” value (“biofilm inhibition results” below) in assay [1] (8 µg/ml) was 3.282 and 3.031 and 2.758; in assay [1] (16 µg/ml) it was 3.706 and 3.472 and 3.059; in assay [1] (32 µg/ml), 3.45 and 3.219 and 3.38; in assay [1] (64 µg/ml), 3.207 and 4.69 and 3.419; in assay [1] (128 µg/ml), 3.365 and 3.804 and 3.615; in assay [1] (256 µg/ml) it was 4.909 and 5.651 and 4.54.
Regarding `CC1=C(CCCCCCCCCCCCCCCCCCCCC2=C(C)C(=O)OC2=O)C(=O)OC1=O` [Compound 2, skeletocutin N], the “biofilm inhibition results” value in assay [1] (8 µg/ml) is 3.048 and 2.841 and 2.718; in assay [1] (16 µg/ml), 2.916 and 2.987 and 2.995; in assay [1] (32 µg/ml), 3.176 and 3.059 and 3.016; in assay [1] (64 µg/ml) it was 2.823 and 3.791 and 2.979; in assay [1] (128 µg/ml) it was 3.623 and 4.381 and 3.14; in assay [1] (256 µg/ml), 4.44 and 4.077 and 4.364.
Take `CC1=C(CCCCCCCCCCCCCCCCCCC(C(=O)O)C(CC(=O)O)C(=O)O)C(=O)OC1=O` (stereo not drawn) [Compound 5, 21-(4’-methyl-2’,5’-dioxo-2’,5’-dihydrofuran-3’-yl)henicosane-1,2,3-tricarboxylic acid]: the “biofilm inhibition results” value in assay [1] (8 µg/ml) is 3.444 and 2.956 and 3.704; in assay [1] (16 µg/ml) it was 3.633 and 3.438 and 3.879; in assay [1] (32 µg/ml) it was 4.452 and 3.838 and 3.757; in assay [1] (64 µg/ml) it was 3.708 and 3.627 and 3.623; in assay [1] (128 µg/ml), 3.871 and 3.836 and 3.597; in assay [1] (256 µg/ml), 3.822 and 3.87 and 3.988. The “inhibition of biofilm formation (in words)” value in assay [1] is “weakly inhibit”. Also, the “IC50, inhibition of ʟ-Leu-AMC hydrolysis” value in assay [2] (ʟ-Leu-AMC (50 µM)) is 153.2 µg/mL; in assay [2] (ʟ-Leu-AMC (100 µM)) it was 225.3 µg/mL; in assay [3] it was greater than 80 µg/mL.
On to `CN(C)[C@@H]1C(O)=C(C(N)=O)C(=O)[C@@]2(O)C(O)=C3C(=O)c4c(O)cccc4[C@@](C)(O)[C@H]3C[C@@H]12` [Tetracycline, reference compound], for which the “biofilm inhibition results” value was 1.107 and 1.315 and 1.404 and 1.155 and 0.918 and 0.791 in assay [1] (32 µg/ml); 0.885 and 0.917 and 0.836 and 0.83 and 0.627 and 0.95 in assay [1] (64 µg/ml); 0.622 and 0.527 and 0.478 and 0.693 and 0.655 and 0.765 in assay [1] (128 µg/ml); 0.462 and 0.414 and 0.487 and 0.644 and 0.444 and 0.498 in assay [1] (256 µg/ml).
Turning to `CC1=C(CCCCCCCCCCCCCCCCC/C=C(\C(=O)O)C(CC(=O)O)C(=O)O)C(=O)OC1=O` (stereo not drawn) [Compound 4, (Z)-21-(4’-methyl-2’,5’-dioxo-2’,5’-dihydrofuran-3’-yl)henicos-3-ene-1,2,3-tricarboxylic acid], the “biofilm inhibition results” value in assay [1] (8 µg/ml) is 4.243 and 3.452 and 3.554; in assay [1] (16 µg/ml), 4.47 and 3.878 and 4.114; in assay [1] (32 µg/ml), 4.702 and 3.439 and 4.271; in assay [1] (64 µg/ml) it was 3.957 and 3.887 and 3.524; in assay [1] (128 µg/ml) it was 4.03 and 4.115 and 4.224; in assay [1] (256 µg/ml) it was 6 and 5.066 and 4.841. For the same molecule, the “ʟ-Leu-AMC inhibition assay (in words)” value in assay [2] is given as “performed moderately”. In addition, the results for the “IC50, inhibition of ʟ-Leu-AMC hydrolysis” value in assay [2] (ʟ-Leu-AMC (50 µM)) and in assay [2] (ʟ-Leu-AMC (100 µM)) were 71.1 µg/mL and 102.3 µg/mL, respectively.
Take `CC1=C(CCCCCCCCCCCCCCCCCC/C=C(\CC(=O)O)C(=O)O)C(=O)OC1=O` [Compound 3, (E)-2-(19-(4’-methyl-2’,5’-dioxo-2’,5’-dihydrofuran-3’-yl)nonadecylidene)butanedioic acid]: the “biofilm inhibition results” value was 2.88 and 3.631 and 3.132 in assay [1] (8 µg/ml); 2.837 and 3.385 and 3.2 in assay [1] (16 µg/ml); 2.875 and 3.534 and 3.458 in assay [1] (32 µg/ml); 3.373 and 3.63 and 3.041 in assay [1] (64 µg/ml); 3.752 and 3.854 and 3.496 in assay [1] (128 µg/ml); 1.742 and 2.419 and 2.26 in assay [1] (256 µg/ml). Moreover, in assay [1], the “inhibition of biofilm formation (in words)” value is on record as “moderately inhibited; also recorded: weakly inhibit”. For the same molecule, the “ʟ-Leu-AMC inhibition assay (in words)” value in assay [2] is listed as “performed moderately”. For the same molecule, the “IC50, inhibition of ʟ-Leu-AMC hydrolysis” value is 89.6 µg/mL in assay [2] (ʟ-Leu-AMC (50 µM)), 130.4 µg/mL in assay [2] (ʟ-Leu-AMC (100 µM)) and greater than 80 µg/mL in assay [3].
For `CC(C)C[C@H](NC(=O)[C@@H](O)[C@H](N)Cc1ccccc1)C(=O)O` [Bestatin, reference compound], the figures for the “IC50, inhibition of ʟ-Leu-AMC hydrolysis” value in assay [2] (ʟ-Leu-AMC (50 µM)) and in assay [2] (ʟ-Leu-AMC (100 µM)) were 10.8 µg/mL and 40.9 µg/mL, respectively.
On to `CC1=C(CCCCCCCCCCCCCCCCC2=C(C)C(=O)OC2=O)C(=O)OC1=O` [Compound 6, tyromycin A], for which the “biofilm inhibition results” value in assay [1] (8 µg/ml) was 3.766 and 3.772 and 3.586; in assay [1] (16 µg/ml), 3.612 and 3.954 and 4.007; in assay [1] (32 µg/ml), 3.328 and 3.954 and 3.188; in assay [1] (64 µg/ml), 3.105 and 3.723 and 3.478; in assay [1] (128 µg/ml), 3.861 and 2.858 and 2.819; in assay [1] (256 µg/ml), 4.54 and 3.949 and 6. The “IC50, inhibition of ʟ-Leu-AMC hydrolysis” value in assay [2] (ʟ-Leu-AMC (50 µM)) stood at 138.4 µg/mL. The “IC50, similar assay against HeLa S3 cells” value in assay [4] is 31 µg/mL (≈ 69.4 µM). In assay [5], the “activity against Gram-positive bacteria (in words)” value is on record as “active”.
